# Results published in ChEMBL document CHEMBL1134160 (Bioorg Med Chem Lett, 2001).
# Key:
# [1] = target: Neuronal acetylcholine receptor subunit alpha-7 (Mus musculus) (UniProt P49582); experiment: Functional activity is expressed as percent efficacy for alpha-7 nAChR.
# [2] = target: Serotonin 3 (5-HT3) receptor; experiment: In vitro Binding affinity towards 5-hydroxytryptamine 3 receptor was determined; assay type: protein-complex assay
# [3] = target: Neuronal acetylcholine receptor subunit alpha-7 (Mus musculus, UniProt P49582); experiment: In vitro Binding affinity towards alpha-7 nAChR was determined
# [4] = target: T1, Acetylcholine receptor; alpha1/beta1/delta/gamma (Homo sapiens, UniProt P02708+P07510+P11230+Q07001); experiment: In vitro Binding affinity towards alpha-1-beta-1-gamma delta nAChR was determined
# [5] = target: Neuronal acetylcholine receptor; alpha4/beta2 (Homo sapiens, UniProt P17787+P43681); experiment: In vitro Binding affinity towards Nicotinic acetylcholine receptor alpha4-beta2 was determined; assay type: protein-complex assay
# [6] = target: T1, Acetylcholine receptor; alpha1/beta1/delta/gamma; experiment: In vitro Binding affinity towards alpha-1-beta-1-gamma-delta nAChR was determined; assay type: protein-complex assay
# [7] = target: Neuronal acetylcholine receptor subunit alpha-7 (Homo sapiens, UniProt P36544); experiment: Effective concentration that causes inhibition of alpha-7 nAChR, was determined. Values are expressed as EC50 +/- SEM.; assay type: functional
# Neuronal acetylcholine receptor subunit alpha-7 (Homo sapiens, UniProt P36544), sequence (P36544 whole entry): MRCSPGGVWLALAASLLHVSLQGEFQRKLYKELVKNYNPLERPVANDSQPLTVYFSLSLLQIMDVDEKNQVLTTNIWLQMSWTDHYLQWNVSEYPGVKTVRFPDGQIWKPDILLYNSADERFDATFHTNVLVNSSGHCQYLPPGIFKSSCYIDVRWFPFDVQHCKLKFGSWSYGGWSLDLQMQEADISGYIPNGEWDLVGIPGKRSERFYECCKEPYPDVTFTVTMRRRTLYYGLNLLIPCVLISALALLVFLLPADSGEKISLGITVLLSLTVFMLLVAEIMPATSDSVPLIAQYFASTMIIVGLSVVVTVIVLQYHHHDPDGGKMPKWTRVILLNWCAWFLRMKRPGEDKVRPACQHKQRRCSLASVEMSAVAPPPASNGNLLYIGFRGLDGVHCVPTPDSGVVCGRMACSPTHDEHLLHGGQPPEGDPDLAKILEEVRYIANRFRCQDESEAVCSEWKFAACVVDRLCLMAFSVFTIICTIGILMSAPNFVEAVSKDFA
# Neuronal acetylcholine receptor; alpha4/beta2, sequence (P17787 whole entry): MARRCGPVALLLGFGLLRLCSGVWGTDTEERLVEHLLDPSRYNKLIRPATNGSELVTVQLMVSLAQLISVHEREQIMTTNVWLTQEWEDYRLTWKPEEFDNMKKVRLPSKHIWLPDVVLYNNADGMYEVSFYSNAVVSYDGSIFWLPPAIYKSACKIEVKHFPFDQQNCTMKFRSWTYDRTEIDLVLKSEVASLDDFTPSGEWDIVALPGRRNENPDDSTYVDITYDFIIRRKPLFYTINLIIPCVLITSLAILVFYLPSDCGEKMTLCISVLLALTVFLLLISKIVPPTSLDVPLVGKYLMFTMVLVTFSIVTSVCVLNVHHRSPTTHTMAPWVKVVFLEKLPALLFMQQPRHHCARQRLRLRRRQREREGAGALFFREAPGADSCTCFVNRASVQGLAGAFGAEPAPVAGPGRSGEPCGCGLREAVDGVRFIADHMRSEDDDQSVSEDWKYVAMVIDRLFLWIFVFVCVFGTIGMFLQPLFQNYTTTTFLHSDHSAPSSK
# Neuronal acetylcholine receptor; alpha4/beta2, sequence (P43681 whole entry): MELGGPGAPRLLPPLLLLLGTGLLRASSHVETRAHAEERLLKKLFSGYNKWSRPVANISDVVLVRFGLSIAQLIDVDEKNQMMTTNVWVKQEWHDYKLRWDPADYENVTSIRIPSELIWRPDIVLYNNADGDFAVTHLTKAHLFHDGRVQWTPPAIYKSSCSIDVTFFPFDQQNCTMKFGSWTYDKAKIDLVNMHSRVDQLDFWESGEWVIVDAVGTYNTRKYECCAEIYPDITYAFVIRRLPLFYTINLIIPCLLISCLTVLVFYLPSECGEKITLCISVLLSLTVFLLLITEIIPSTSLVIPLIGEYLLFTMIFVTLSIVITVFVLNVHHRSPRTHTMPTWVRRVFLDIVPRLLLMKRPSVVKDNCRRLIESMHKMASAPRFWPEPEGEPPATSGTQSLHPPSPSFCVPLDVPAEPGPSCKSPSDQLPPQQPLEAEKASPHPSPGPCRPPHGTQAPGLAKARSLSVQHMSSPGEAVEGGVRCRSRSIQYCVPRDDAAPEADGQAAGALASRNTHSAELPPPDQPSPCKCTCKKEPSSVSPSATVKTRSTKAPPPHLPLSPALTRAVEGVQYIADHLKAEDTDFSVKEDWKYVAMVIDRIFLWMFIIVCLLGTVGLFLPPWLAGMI
# T1 sequence (P02708 whole entry): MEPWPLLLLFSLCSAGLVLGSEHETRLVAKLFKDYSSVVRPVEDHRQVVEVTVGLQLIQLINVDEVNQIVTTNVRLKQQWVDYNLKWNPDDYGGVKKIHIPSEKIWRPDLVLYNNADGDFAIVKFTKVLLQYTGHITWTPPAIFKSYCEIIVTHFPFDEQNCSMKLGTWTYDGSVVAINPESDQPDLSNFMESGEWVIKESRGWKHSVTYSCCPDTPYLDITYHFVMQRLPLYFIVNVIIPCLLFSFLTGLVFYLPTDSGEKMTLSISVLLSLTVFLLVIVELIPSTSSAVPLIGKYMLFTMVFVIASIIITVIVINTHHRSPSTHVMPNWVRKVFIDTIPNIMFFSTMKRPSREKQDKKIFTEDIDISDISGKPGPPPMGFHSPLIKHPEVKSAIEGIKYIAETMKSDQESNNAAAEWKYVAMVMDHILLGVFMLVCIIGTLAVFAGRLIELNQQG
# T1 sequence (P07510 whole entry): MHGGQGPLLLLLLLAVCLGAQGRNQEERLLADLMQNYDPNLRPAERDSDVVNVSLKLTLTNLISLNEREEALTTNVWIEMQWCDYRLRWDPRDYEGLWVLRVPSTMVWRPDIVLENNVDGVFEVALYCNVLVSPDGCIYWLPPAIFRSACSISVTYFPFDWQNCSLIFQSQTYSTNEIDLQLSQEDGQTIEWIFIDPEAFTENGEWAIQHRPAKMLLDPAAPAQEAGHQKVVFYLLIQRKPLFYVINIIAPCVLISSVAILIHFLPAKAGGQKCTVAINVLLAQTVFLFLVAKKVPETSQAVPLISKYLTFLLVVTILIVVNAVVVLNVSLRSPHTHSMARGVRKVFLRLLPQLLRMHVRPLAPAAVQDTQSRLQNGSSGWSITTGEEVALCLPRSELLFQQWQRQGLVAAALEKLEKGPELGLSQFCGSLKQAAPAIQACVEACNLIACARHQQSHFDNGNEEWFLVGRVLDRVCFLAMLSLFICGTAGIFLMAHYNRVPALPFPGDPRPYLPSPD
# T1 sequence (P11230 whole entry): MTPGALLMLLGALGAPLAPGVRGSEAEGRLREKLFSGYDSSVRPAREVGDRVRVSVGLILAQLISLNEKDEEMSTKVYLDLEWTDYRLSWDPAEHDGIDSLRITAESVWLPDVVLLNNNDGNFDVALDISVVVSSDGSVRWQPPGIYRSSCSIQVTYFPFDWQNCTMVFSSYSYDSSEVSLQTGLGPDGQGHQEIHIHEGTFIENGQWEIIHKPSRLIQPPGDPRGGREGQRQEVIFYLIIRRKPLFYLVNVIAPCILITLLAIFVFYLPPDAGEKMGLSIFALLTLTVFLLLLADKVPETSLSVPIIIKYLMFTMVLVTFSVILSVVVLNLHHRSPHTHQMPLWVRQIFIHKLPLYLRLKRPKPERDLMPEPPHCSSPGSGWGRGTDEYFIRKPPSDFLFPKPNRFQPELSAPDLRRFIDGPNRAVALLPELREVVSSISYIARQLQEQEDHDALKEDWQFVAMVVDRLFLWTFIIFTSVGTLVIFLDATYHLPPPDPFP
# T1 sequence (Q07001 whole entry): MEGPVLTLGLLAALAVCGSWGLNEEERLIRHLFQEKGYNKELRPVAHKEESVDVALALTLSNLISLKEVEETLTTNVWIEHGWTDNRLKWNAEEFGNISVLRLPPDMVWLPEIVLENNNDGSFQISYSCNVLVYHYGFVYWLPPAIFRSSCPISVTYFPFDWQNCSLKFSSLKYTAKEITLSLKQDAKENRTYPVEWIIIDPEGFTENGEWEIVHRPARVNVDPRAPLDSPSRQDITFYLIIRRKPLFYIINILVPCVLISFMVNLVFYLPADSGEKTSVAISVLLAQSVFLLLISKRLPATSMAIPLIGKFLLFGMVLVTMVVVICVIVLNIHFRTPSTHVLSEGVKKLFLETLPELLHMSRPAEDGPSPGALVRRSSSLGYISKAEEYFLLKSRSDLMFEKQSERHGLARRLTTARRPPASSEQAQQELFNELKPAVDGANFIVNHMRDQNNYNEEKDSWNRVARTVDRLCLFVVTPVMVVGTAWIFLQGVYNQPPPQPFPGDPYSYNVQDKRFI
# Neuronal acetylcholine receptor subunit alpha-7 (Mus musculus), sequence (P49582 whole entry): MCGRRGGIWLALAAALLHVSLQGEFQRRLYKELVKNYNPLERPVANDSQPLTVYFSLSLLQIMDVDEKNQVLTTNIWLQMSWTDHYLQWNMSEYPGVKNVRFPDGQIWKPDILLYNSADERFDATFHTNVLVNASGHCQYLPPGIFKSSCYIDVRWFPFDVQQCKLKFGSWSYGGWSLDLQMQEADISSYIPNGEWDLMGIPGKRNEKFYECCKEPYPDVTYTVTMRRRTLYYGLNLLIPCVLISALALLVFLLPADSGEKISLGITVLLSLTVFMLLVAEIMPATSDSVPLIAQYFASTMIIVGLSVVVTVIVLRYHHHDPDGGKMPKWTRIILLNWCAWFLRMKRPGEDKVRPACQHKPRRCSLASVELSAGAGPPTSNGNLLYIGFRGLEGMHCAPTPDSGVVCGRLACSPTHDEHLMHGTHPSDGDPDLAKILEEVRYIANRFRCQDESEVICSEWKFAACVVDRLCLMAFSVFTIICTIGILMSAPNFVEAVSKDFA
# Neuronal acetylcholine receptor subunit alpha-7 (Mus musculus, UniProt P49582), sequence (P49582 whole entry): as above
smiles,measurement,setting,value
CN1CCC[C@H]1c1cccnc1 [NICOTINE],Efficacy,[1],53%
same,Ki,[2],71 µM
same,Ki,[3],0.48 µM
same,Ki,[4],5.5 µM
CC(=O)OCC[N+](C)(C)C,Efficacy,[1],100%
CN1[C@@H]2CC[C@H]1C[C@@H](OC(=O)c1c[nH]c3ccccc13)C2 [TROPISETRON],Ki,[5],55 µM
same,Ki,[6],27 µM
C[N+]1(C)C2CCC1CC(OC(=O)c1c[nH]c3ccccc13)C2 (configuration not stated),Efficacy,[1],13%
same,Ki,[5],7.8 µM
same,Ki,[2],0.0072 µM
same,Ki,[3],0.0064 µM
same,EC50,[7],0.28 µM
same,Ki,[6],3 µM
CN1C2CCCC1CC(NC(=O)c1nn(C)c3ccccc13)C2 (configuration not stated) [GRANISETRON],Ki,[5],38 µM
same,Ki,[3],> 10 µM
Cc1nccn1CC1CCc2c(c3ccccc3n2C)C1=O (configuration not stated) [ONDANSETRON],Ki,[5],46 µM
same,Ki,[3],> 3 µM
O=C(OC1CN2CCC1CC2)n1ccc2ccccc21 (configuration not stated),Efficacy,[1],17%
same,Ki,[5],14 µM
same,Ki,[2],0.01 µM
same,Ki,[3],0.0088 µM
same,EC50,[7],4.8 µM
